Laboratory results from PubChem BioAssay (NCI).
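Dose response: 5 concentrations. Exposure: 48 h. Format: 96-well plates. Endpoint: linear interpolation; highest concentration if not reached. GI50 marks 50% less growth. TGI marks complete inhibition of growth.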 Where a SMILES comes first, the peptide text is derived from it. [ ]: non-standard residue; d: D form. The star is where a group is joined. ξ: configuration not given here. 4Abz = Nc1ccc(C(=O)O)cc1; ξL = CC(C)CC(N)C(=O)O; NHOH = ON*

What was measured:
Test in all cases: NCI tumour cell line growth inhibition, 48 h
UACC-257 melanoma = system: UACC-257 melanoma
SNB-19 CNS = system: SNB-19 CNS
OVCAR-8 ovarian = system: OVCAR-8 ovarian
SF-295 CNS = system: SF-295 CNS
NCI-H23 lung = system: NCI-H23 lung
M14 melanoma = system: M14 melanoma
HCC-2998 colon = system: HCC-2998 colon
CAKI-1 renal = system: CAKI-1 renal
SR leukemia = system: SR leukemia
BT-549 breast = system: BT-549 breast

Row | SMILES | TGI (UACC-257 melanoma) [µM] | TGI (SNB-19 CNS) [µM] | TGI (OVCAR-8 ovarian) [µM] | TGI (SF-295 CNS) [µM] | TGI (NCI-H23 lung) [µM] | TGI (M14 melanoma) [µM] | TGI (HCC-2998 colon) [µM] | TGI (CAKI-1 renal) [µM] | TGI (SR leukemia) [µM] | GI50 (UACC-257 melanoma) [µM] | GI50 (SNB-19 CNS) [µM] | GI50 (BT-549 breast) [µM] | TGI (BT-549 breast) [µM] | GI50 (OVCAR-8 ovarian) [µM] | GI50 (SF-295 CNS) [µM] | GI50 (NCI-H23 lung) [µM] | GI50 (M14 melanoma) [µM] | GI50 (HCC-2998 colon) [µM] | GI50 (CAKI-1 renal) [µM] | GI50 (SR leukemia) [µM]
1 | COc1ccc(/C=N\N2C(=O)Cc3ccccc32)cc1 | > 100 | > 100 | > 100 | > 100 | > 100 | > 100 | > 100 | > 100 |  |  |  |  |  |  |  |  |  |  |  | 
2 | CC(=O)OC1CC[C@@]2(C)C(CC(OC3OC(CO)C(O)C(O)C3O)[C@]3(C)C2CCC24CC23CC[C@H]4C(C)CC(O)[C@@H](O)C(C)(C)O)C1(C)C (stereo not given in full) | 24.4 | 38.3 | > 50 | > 50 | > 50 | 22.6 | 25.5 | > 50 |  |  |  |  |  |  |  |  |  |  |  | 
3 | COc1cc(OC)c(Oc2cccc(OC)c2OC)c(OC)c1 | > 100 | > 100 | > 100 | > 100 | > 100 | > 100 | > 100 | > 100 | > 100 |  |  |  |  |  |  |  |  |  |  | 
4 | CC(C)CC(NC(=O)[C@@H]1CCCN1C(=O)CNC(=O)c1ccc(N)cc1)C(=O)N[C@H](C)C(=O)NO (stereo not given in full) (H-[4Abz]GP[ξL][dA]-{NHOH}) | > 100 | > 100 | > 100 | > 100 | > 100 | > 100 | > 100 | > 100 |  | > 100 | > 100 | > 100 | > 100 | > 100 | > 100 | > 100 | > 100 | > 100 | > 100 | 
5 | COC1=C(C(=O)OC(C)(C)C)C23CCCCC2(C(C(=O)OC(C)(C)C)=C(OC)C3C(=O)OC(C)(C)C)C1C(=O)OC(C)(C)C (stereo not given) | > 100 | > 100 | > 100 | > 100 | > 100 | > 100 | > 100 | > 100 | > 100 |  |  |  |  |  |  |  |  |  |  | 
6 | Nc1ccc(Cl)cc1.Nc1ccc(Cl)cc1.Nc1ccc(Cl)cc1.O=C([O-])C(=O)[O-].O=C([O-])C(=O)[O-].[H+].[Ru+5] | > 100 | > 100 | > 100 |  | > 100 | > 100 |  | > 100 | > 100 |  | 31.4 |  |  |  | 0.127 | > 19.8 | > 100 | 0.439 |  | 0.023
7 | O=C(CCCCCn1c2ccccc2c2c3c(c4c5ccccc5[nH]c4c21)C(=O)N(O)C3=O)N1CCOCC1 | 7.76 | 36.8 | 7.86 |  | 5.47 | 5.52 | 3.54 | 4.81 | 5.45 | 3.19 | 3.05 |  |  | 2.84 |  | 2.11 | 2.14 | 1.85 | 2.13 | 1.12
8 | COc1ncn(C2C=C(CO)C(O)C2O)c(=O)n1 (stereo not given) | > 100 |  | > 100 |  |  | > 100 | > 100 |  |  |  |  |  |  |  |  |  |  |  |  | 
9 | O=C1/C=C(/c2ccc(O)cc2)[C@H](O)Cc2ccc(OC3OC(CO)C(O)C(O)C3O)cc2O1 (stereo not given in full) (tested in a mixture with another compound) | > 100 | > 100 | > 100 | > 100 | > 100 | > 100 |  | > 100 |  |  |  |  |  |  |  |  |  |  |  | 
10 | Cc1cc(C)c(-c2noc(-c3ccc(Cl)cc3)c2C2=NCCN2)c(C)c1 | 34 | > 100 |  | 27.6 | 36.2 | 27 | 36 | > 100 | 48 |  |  |  |  |  |  |  |  |  |  | 
11 | Cn1c(=O)c(C2c3ccccc3Oc3c2c(=O)n(C)c2ccccc32)c(O)c2ccccc21 (stereo not given) | 73.7 | > 100 | > 100 | > 100 | > 100 | > 100 | > 100 | > 100 | > 100 |  |  |  |  |  |  |  |  |  |  | 
12 | O=C(Nc1ccc(Cl)cc1Cl)c1c/c(=N\O)c2ccc(O)cc2o1 | > 100 | > 100 | > 100 | > 100 | > 100 | > 100 |  | > 100 | > 100 |  |  |  |  |  |  |  |  |  |  | 
13 | COc1ccc(OC)c(-c2cc(-c3ccc(Cl)cc3)nn2-c2ccc(S(N)(=O)=O)cc2)c1 | 16.4 |  | 34.6 | 44.4 | 28.3 | 19.7 | 21.6 | 29.3 |  | 3.98 |  | 12.4 | 29.4 | 11.3 | 17.2 | 13.4 | 7.73 | 7.51 | 11.2 | 
14 | O=C1C=Cc2cc3ccccc3c3cccc1c23 | 19.2 | > 100 | 16.7 | 35.8 | 9.95 | > 100 | 3.18 | 7.1 |  | 4.29 | 8.51 | 9.66 | 51.9 | 3.3 | 7.65 | 2.57 | 15.7 | 0.413 | 2.51 | 
15 | COc1ccccc1NC(=O)CC(=O)NNCC(=O)Nc1nc(-c2ccccc2)cs1 |  | > 100 | > 100 | > 100 | > 100 | > 100 |  |  |  |  |  |  |  |  |  |  |  |  |  | 
16 | COC(=O)C(=O)C(C(=O)C(=O)Nc1ccc(Cl)cc1Cl)c1nc2ccc(Cl)cc2[nH]c1=O (stereo not given) | > 100 | > 100 | > 100 | > 100 | > 100 | > 100 | > 100 | > 100 |  |  |  |  | > 100 |  |  |  |  |  |  | 
17 | CCCCc1c2c(nc3c1CCc1cc(C=O)c(N)nc1-3)/C(=C/c1ccccc1)CCC2 | > 100 | > 100 | > 100 | > 100 | > 100 | > 100 | 45.1 | > 100 | > 100 |  |  |  |  |  |  |  |  |  |  | 
18 | N#CC1(Cc2ccccc2Cl)c2ccccc2C=CN1C(=O)c1ccccc1 (stereo not given) | > 100 | > 100 | > 100 | > 100 | > 100 | > 100 | > 100 |  | > 100 |  |  |  |  |  |  |  |  |  |  | 
19 | CCCCCCCCOCC(O)COC (stereo not given) | > 100 | > 100 | > 100 | > 100 | > 100 | > 100 | > 100 | > 100 | > 100 |  |  |  |  |  |  |  |  |  |  | 
20 | Cc1cc(CC(O)(C(F)(F)F)C(F)(F)F)cc(CC(O)(C(F)(F)F)C(F)(F)F)n1 | 8.65 | > 100 | 12.4 | 9.94 | 5.31 | 12 | 14.2 | > 100 | 15.1 |  |  |  |  |  |  |  |  |  |  | 
